Assay results taken from patent publication US6914045B2, “Glycopeptide antibiotics” (Wyeth Holdings Corporation, priority 2001, dated 2005).
Values after ≈ are worked out from the molar mass of the structure shown.

What was measured:
Enterococcus sp. = test: in vitro antibacterial evaluation, MIC by broth dilution; type: cell-based; details: broth dilution, 18 hours at 35° C.
How it was run: (§1)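 Broth dilution per NCCLS standard M7-A2 in Muller-Hinton II […], with an inoculum of 5×10^5 CFU/mL and antibiotic spanning 64-0.06 μg/mL. The MIC is the lowest concentration that inhibits growth of the organism.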

Staphylococcus sp. = test: as above; type: cell-based; details: broth dilution, 18 hours at 35° C.
How it was run: as §1

Streptococcus sp. = test: as above; type: cell-based; details: broth dilution, 18 hours at 35° C.
How it was run: as §1

[1] = tested on: Staphylococcus aureus-SMITH (GC 4543); test: acute lethal infection in mice; type: in vivo; details: acute lethal infection, female CD-1 mice, intraperitoneal challenge, intravenous 30 min. after infection, 7 day survival
How it was run: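 Intraperitoneal challenge of female CD-1 mice with a bacterial dose lethal to untreated animals within 24-48 hr; single iv treatment 30 min later, 5 mice per dose level. Survival is scored at day 7 and pooled from three experiments to give the median effective dose.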

[2] = clinical pathology (serum clinical chemistry) in mice; type: in vivo; details: CD-1 mice, 20 mg/kg intravenously daily for 9 days, sera day 10
Experimental: 20-day-old CD-1 mice were divided into a vehicle control group (5 mice) and a treatment group (5 mice). Samples of glycopeptide antibiotics were administered at 20 mg/kg intravenously daily for 9 days.

[3] = anatomic pathology (histopathology of heart and kidney) in mice; type: in vivo; details: CD-1 mice, 20 mg/kg intravenously daily for 9 days, necropsy day 10, microscopic histopathology
Experimental: Samples of tissues from necropsied mice were formalin-fixed, paraffin-embedded, sectioned, stained with hematoxylin and eosin, and examined microscopically. Histopathologic findings were recorded. These findings were subjectively graded on a scale corresponding to slight, mild, moderate, marked and severe as compared to untreated controls.

Escherichia coli = test: in vitro antibacterial evaluation, MIC by broth dilution; type: cell-based; details: 18 hours at 35° C.

COc1ccc2cc(COCC3OC(OC4C(CO)OC(Oc5ccc(CC6NC(=O)C(C(C)c7ccccc7)NC(=O)CNC(=O)C(CO)NC(=O)C(CC7CNC(=N)N7C7OC(CO)C(O)C(O)C7O)NC(=O)C(CC7CNC(=N)N7)NC6=O)cc5)C(O)C4O)C(O)C(O)C3O)ccc2c1 (stereo not drawn) [Example 245, Cyclo[3-(2-iminoimidazolidin-4-yl)alanyl-3-(3-hexopyranosyl-2-iminoimidazolidin-4-yl)-alanylserylglycyl-β-methylphenylalanyl-O-[4-O-[6-O-[(6-methoxy-2-naphthyl)methyl]-hexopyranosyl]hexopyranosyl]tyrosyl]]
MIC Enterococcus avium (GC 4558) (Enterococcus sp.): 16 µg/mL (≈ 11.2 µM) | MIC Enterococcus faecalis (ATCC 29212) (Enterococcus sp.): 32 µg/mL (≈ 22.3 µM) | MIC Enterococcus faecalis (GC 2242) (Enterococcus sp.): 16 µg/mL (≈ 11.2 µM) | MIC Enterococcus faecalis (GC 2691) (Enterococcus sp.): 32 µg/mL (≈ 22.3 µM) | MIC Enterococcus faecalis (GC 3059) (Enterococcus sp.): 16 µg/mL (≈ 11.2 µM) | MIC Enterococcus faecalis (GC 4552) (Enterococcus sp.): 16 µg/mL (≈ 11.2 µM) | MIC Enterococcus faecalis (GC 4553) (Enterococcus sp.): 16 µg/mL (≈ 11.2 µM) | MIC Enterococcus faecalis (GC 4554) (Enterococcus sp.): 32 µg/mL (≈ 22.3 µM) | MIC Enterococcus faecalis (GC 6189) (Enterococcus sp.): 32 µg/mL (≈ 22.3 µM) | MIC Enterococcus faecium (GC 2243) (Enterococcus sp.): 16 µg/mL (≈ 11.2 µM) | MIC Enterococcus faecium (GC 4556) (Enterococcus sp.): 16 µg/mL (≈ 11.2 µM) | MIC Enterococcus faecium (GC 4557) (Enterococcus sp.): 4 µg/mL (≈ 2.79 µM) | MIC Enterococcus faecalis (ATCC 29212) (Enterococcus sp.; strain ATCC 29212): 32 µg/mL (≈ 22.3 µM) | MIC Enterococcus faecium (GC 2243) (Enterococcus sp.; strain GC 2243): 16 µg/mL (≈ 11.2 µM) | MIC Enterococcus faecalis (GC 4552) (Enterococcus sp.; strain GC 4552): 16 µg/mL (≈ 11.2 µM) | MIC Enterococcus faecalis (GC 4553) (Enterococcus sp.; strain GC 4553): 16 µg/mL (≈ 11.2 µM) | MIC Enterococcus faecalis (GC 4554) (Enterococcus sp.; strain GC 4554): 32 µg/mL (≈ 22.3 µM) | MIC Enterococcus faecium (GC 4556) (Enterococcus sp.; strain GC 4556): 16 µg/mL (≈ 11.2 µM) | MIC Enterococcus faecium (GC 4557) (Enterococcus sp.; strain GC 4557): 4 µg/mL (≈ 2.79 µM) | MIC Enterococcus avium (GC 4558) (Enterococcus sp.; strain GC 4558): 16 µg/mL (≈ 11.2 µM) | MIC Enterococcus faecalis (GC 6189) (Enterococcus sp.; strain GC 6189): 32 µg/mL (≈ 22.3 µM) | MIC Enterococcus faecalis (GC 2242) (Enterococcus sp.; inoculum 5×10^5 CFU/mL, strain GC 2242): 16 µg/mL (≈ 11.2 µM) | MIC Enterococcus faecalis (GC 2691) (Enterococcus sp.; inoculum 5×10^5 CFU/mL, strain GC 2691): 32 µg/mL (≈ 22.3 µM) | MIC Enterococcus faecalis (GC 3059) (Enterococcus sp.; inoculum 5×10^5 CFU/mL, strain GC 3059): 16 µg/mL (≈ 11.2 µM) | MIC Coagulase Negative Staphylococcus (GC 4547) (Staphylococcus sp.): 4 µg/mL (≈ 2.79 µM) | MIC Coagulase Negative Staphylococcus (GC 4548) (Staphylococcus sp.): 2 µg/mL (≈ 1.4 µM) | MIC Coagulase Negative Staphylococcus (GC 4549) (Staphylococcus sp.): 1 µg/mL (≈ 0.698 µM) | MIC Coagulase Negative Staphylococcus (GC 4551) (Staphylococcus sp.): 8 µg/mL (≈ 5.58 µM) | MIC Coagulase Negative Staphylococcus (GC 6257) (Staphylococcus sp.): 2 µg/mL (≈ 1.4 µM) | MIC Staphylococcus aureus (ATCC 29213) (Staphylococcus sp.): 4 µg/mL (≈ 2.79 µM) | MIC Staphylococcus aureus (GC 1131) (Staphylococcus sp.): 8 µg/mL (≈ 5.58 µM) | MIC Staphylococcus aureus (GC 3051) (Staphylococcus sp.): 4 µg/mL (≈ 2.79 µM) | MIC Staphylococcus aureus (GC 3053) (Staphylococcus sp.): 4 µg/mL (≈ 2.79 µM) | MIC Staphylococcus aureus (GC 4541) (Staphylococcus sp.): 4 µg/mL (≈ 2.79 µM) | MIC Staphylococcus aureus (GC 4542) (Staphylococcus sp.): 4 µg/mL (≈ 2.79 µM) | MIC Staphylococcus aureus (GC 4544) (Staphylococcus sp.): 8 µg/mL (≈ 5.58 µM) | MIC Staphylococcus aureus (GC 4545) (Staphylococcus sp.): 4 µg/mL (≈ 2.79 µM) | MIC Staphylococcus aureus-SMITH (GC 4543) (Staphylococcus sp.): 4 µg/mL (≈ 2.79 µM) | MIC Staphylococcus haemolyticus (GC 4546) (Staphylococcus sp.): 4 µg/mL (≈ 2.79 µM) | MIC Staphylococcus aureus (ATCC 29213) (Staphylococcus sp.; strain ATCC 29213): 4 µg/mL (≈ 2.79 µM) | MIC Staphylococcus aureus (GC 1131) (Staphylococcus sp.; strain GC 1131): 8 µg/mL (≈ 5.58 µM) | MIC Staphylococcus aureus (GC 3051) (Staphylococcus sp.; strain GC 3051): 4 µg/mL (≈ 2.79 µM) | MIC Staphylococcus aureus (GC 3053) (Staphylococcus sp.; strain GC 3053): 4 µg/mL (≈ 2.79 µM) | MIC Staphylococcus aureus (GC 4541) (Staphylococcus sp.; strain GC 4541): 4 µg/mL (≈ 2.79 µM) | MIC Staphylococcus aureus (GC 4542) (Staphylococcus sp.; strain GC 4542): 4 µg/mL (≈ 2.79 µM) | MIC Staphylococcus aureus-SMITH (GC 4543) (Staphylococcus sp.; strain GC 4543): 4 µg/mL (≈ 2.79 µM) | MIC Staphylococcus aureus (GC 4544) (Staphylococcus sp.; strain GC 4544): 8 µg/mL (≈ 5.58 µM) | MIC Staphylococcus aureus (GC 4545) (Staphylococcus sp.; strain GC 4545): 4 µg/mL (≈ 2.79 µM) | MIC Staphylococcus haemolyticus (GC 4546) (Staphylococcus sp.; strain GC 4546): 4 µg/mL (≈ 2.79 µM) | MIC Coagulase Negative Staphylococcus (GC 4547) (Staphylococcus sp.; strain GC 4547): 4 µg/mL (≈ 2.79 µM) | MIC Coagulase Negative Staphylococcus (GC 4548) (Staphylococcus sp.; strain GC 4548): 2 µg/mL (≈ 1.4 µM) | MIC Coagulase Negative Staphylococcus (GC 4549) (Staphylococcus sp.; strain GC 4549): 1 µg/mL (≈ 0.698 µM) | MIC Coagulase Negative Staphylococcus (GC 4551) (Staphylococcus sp.; strain GC 4551): 8 µg/mL (≈ 5.58 µM) | MIC Coagulase Negative Staphylococcus (GC 6257) (Staphylococcus sp.; strain GC 6257): 2 µg/mL (≈ 1.4 µM) | MIC Streptococcus agalactiae (GC 4564) (Streptococcus sp.): 4 µg/mL (≈ 2.79 µM) | MIC Streptococcus pneumoniae (ATCC 6301) (Streptococcus sp.): 2 µg/mL (≈ 1.4 µM) | MIC Streptococcus pneumoniae (GC 1894) (Streptococcus sp.): 1 µg/mL (≈ 0.698 µM) | MIC Streptococcus pneumoniae (GC 4565) (Streptococcus sp.): 4 µg/mL (≈ 2.79 µM) | MIC Streptococcus pyogenes (GC 4563) (Streptococcus sp.): 4 µg/mL (≈ 2.79 µM) | MIC Streptococcus pneumoniae (ATCC 6301) (Streptococcus sp.; inoculum 5×10^5 CFU/mL, strain ATCC 6301): 2 µg/mL (≈ 1.4 µM) | MIC Streptococcus pneumoniae (GC 1894) (Streptococcus sp.; inoculum 5×10^5 CFU/mL, strain GC 1894): 1 µg/mL (≈ 0.698 µM) | MIC Streptococcus pyogenes (GC 4563) (Streptococcus sp.; inoculum 5×10^5 CFU/mL, strain GC 4563): 4 µg/mL (≈ 2.79 µM) | MIC Streptococcus agalactiae (GC 4564) (Streptococcus sp.; inoculum 5×10^5 CFU/mL, strain GC 4564): 4 µg/mL (≈ 2.79 µM) | MIC Streptococcus pneumoniae (GC 4565) (Streptococcus sp.; inoculum 5×10^5 CFU/mL, strain GC 4565): 4 µg/mL (≈ 2.79 µM) | median effective dose (ED50), Staphylococcus aureus-SMITH (GC 4543) [1]: 4 mg/kg | Clinical Chemistry (Day 10) % of Control, BUN [2]: +160% | Clinical Chemistry (Day 10) % of Control, Creatinine [2]: +138% | Anatomical Pathology (Day 10), Heart [3]: 0 | Anatomical Pathology (Day 10), Kidney [3]: +++ | MIC Escherichia coli (ATCC 25922) (Escherichia coli): 64 µg/mL (≈ 44.6 µM) | MIC Escherichia coli (GC 4559) (Escherichia coli): 32 µg/mL (≈ 22.3 µM) | MIC Escherichia coli (GC 4560) (Escherichia coli): 4 µg/mL (≈ 2.79 µM)
